Reference: patent US6602673B2, “Huntingtin-related therapeutics and bioassay” (University of Massachusetts, priority 1996, dated 2003)

System: human fibroblasts
Assay: Brefeldin A (BFA) treatment of human fibroblasts, immunofluorescence localization of huntingtin, 58 kDa Golgi protein and tubulin
Assay type: cell-based
Method: For the studies described herein, fibroblasts from passage number 10-15 were plated onto coverslips and grown in culture for 24-48 hours. Cells were rinsed briefly with phosphate buffered saline (PBS) and fixed for 10 minutes with 4% paraformaldehyde in PBS at room temperature. After fixation, cells were rinsed multiple times and stored at 4° C. in PBS. Huntingtin was immunolocalized in human fibroblasts using an affinity purified anti-peptide antibody, Ab 2527, at 2-4 μg/ml. In selected experiments, cells were also labeled with a monoclonal antiserum that recognizes clathrin heavy chain (2 μg/ml, Biodesign Int., Kennebunk, Me.), the Golgi-associated 58 kDa protein (ascites serum diluted 1:100, Sigma Chemical Co., St. Louis, Mo.), or human transferrin receptor (5 μg/ml, Zymed Laboratories Inc., San Francisco, Calif.). Cells were made permeable by a 30 minute incubation in 0.1% Triton® X-100 in PBS, rinsed several times, and blocked with 5% normal goat serum for 60 minutes prior to incubation in primary antibodies. All incubations, whether performed with a single type of antibody or two types of antibodies, were carried out overnight at 4° C. and were followed by multiple rinses in PBS. Secondary antibodies were used at a 1:400 dilution. A pooled mixture of either Texas Red goat anti-mouse IgG (Molecular Probes Inc., Eugene, Oreg.) and Bodipy FL anti-rabbit IgG (Molecular Probes Inc, Eugene, Oreg.) or Texas Red goat anti-mouse IgM (Vector Laboratories, Burlingame, Calif.) and Bodipy FL anti-rabbit IgG were used. For immunoperoxidase labeling, cells were rinsed several times after the primary incubation and an avidin/biotin blocking procedure was performed prior to the incubation in secondary antibody. A Vectastain ABC™ kit (Vector Laboratories, Burlingame, Calif.) was employed to localize the primary antibody, and diaminobenzidine was used as a substrate for visualization of the peroxidase reaction product. Sections were examined using conventional immunofluorescence microscopy and a Biorad 1024 laser confocal microscope. Image processing was performed with Adobe Photoshop™.
To further establish the association of huntingtin with Golgi membranes, cells were treated with the fungal metabolite Brefeldin A (BFA).
Cells were briefly rinsed with Hank's balanced salt solution (HBSS) and then incubated in complete medium containing BFA (5 μg/ml; Gibco/BRL). The cells were incubated at either 18° C. or 37° C. for 10 minutes, then rinsed briefly with 50 mM phosphate buffered saline (PBS; pH 7.4) and fixed immediately for 10 minutes with 4% paraformaldehyde in PBS at room temperature.

C[C@H]1CCC/C=C/[C@@H]2C[C@H](O)C[C@H]2[C@H](O)/C=C/C(=O)O1 [BFA, Brefeldin A]
Distribution of tubulin in BFA-treated cells (compared to untreated cells): unchanged | Huntingtin localization after mild BFA treatment (mild BFA treatment, 5 μg for 10 min at 18° C., human fibroblasts): fragmented and dispersed | Huntingtin localization after more severe BFA treatment (more severe BFA treatment, human fibroblasts): obliterated | Localization of huntingtin and the 58 kDa protein in the presence of bfa (figure legend) (normal fibroblasts, +bfa, FIGS. 3C and 3D): more widely dispersed from the nucleus and the Golgi-membrane architecture is disrupted
